Measurements from patent US5739117A, “Agent for improving cerebral metabolism including glucose ester derivatives” (Fujimoto Pharmaceutical Co., Ltd., priority 1993, dated 1998).

Experiments:
[1] = Kinetic changes in radioactivities in the blood and the cerebral tissue after intravenous injection; assay type: in vivo, mice (ddy strain); settings: mice, i.v. tail vein
Protocol: Normal male mice of the ddy strain at 6 weeks of age were injected intravenously through tail vein with 0.05 ml of […] ^18 F in DMSO solution.
Kinetic changes in radioactivities in the blood and the cerebral tissue of the mice injected with ^18 F-AFDG.

[2] = Intra-cerebral and blood concentrations of ^18 F-AFDG and its metabolites after intravenous injection; assay type: in vivo; settings: mice
Protocol: Mice were given an intravenous injection of 0.05 ml solution of 0.5 mM ^18 F-AFD in DMSO.

time up to which levels of radioactivity in the cerebral tissue increased ([1]; 0.05 ml in DMSO, FIG. 1) [min]	proportion that reached the cerebral tissue ([2]; i.v., 0.05 ml of 0.5 mM in DMSO, within 0.5 minute following administration)	time of emergence of intra-cerebral metabolites ([2]; i.v. ^18 F-AFDG, 0.5 mM in DMSO, cerebral tissue) [min]	concentration in the cerebral tissue over time ([2]; i.v. ^18 F-AFDG, after 0.5 minute, FIG. 3)	Compound	blood radioactivity levels ([1]; 0.05 ml in DMSO, following administration)	radioactivity in the cerebral tissue after administration ([1]; 0.05 ml in DMSO, immediately after administration)	radioactivity in the cerebral tissue compared with blood ([1]; at 10 minutes of administration and thereafter)	extent metabolized into ^18 F-FDG-6-phosphate ([2]; i.v., cerebral tissue, at 180 minutes)	proportion among ^18 F-AFDG and metabolites in the cerebral tissue ([2]; i.v. ^18 F-AFDG, at 5, 60 and 180 minutes, compared with blood, FIGS. 4 and 5)
30	approximately 40%	–	–	CC(=O)OC[C@H]1OC(OC(C)=O)[C@H]([18F])[C@@H](OC(C)=O)[C@@H]1OC(C)=O (stereo partly drawn) [^18 F-AFDG, 1,3,4,6-tetra-O-acetyl-2-^18 F-D-glucose]	decreased consistently following administration	could be detected in the cerebral tissue immediately after administration	higher in the cerebral tissue than in the blood	the entire ^18 F-AFDG was found to be metabolized into ^18 F-FDG-6-phosphate	–
–	–	≤ 0.5	raised markedly	O=P(O)(O)OC[C@H]1OC(O)[C@H]([18F])[C@@H](O)[C@@H]1O (stereo partly drawn) [^18 F-FDG-6-phosphate]	–	–	–	–	highest proportion in the cerebral tissue
